# Earlier results, collected in patent US20070275929A1, “Composition and method for controlling the transmission of noroviruses” (THE DIAL CORPORATION, priority 2006, published 2007).
# System: norovirus
# Settings: alcohol alone
smiles,measurement,value
CCO [alcohol],contact time required to reduce norovirus populations by a factor of 3,30 min
